Literature values, collected in patent US7910678B2, “Copolymers having 1-methyl-2-methoxyethyl moieties” (Abbott Laboratories, priority 2006, dated 2011).
Read-outs that look alike come from different tables or passages of the source.

System: mouse

Structure (SMILES)	Oral-mouse LD50 (oral) [mg/kg]	Oral-mouse LD50 (in vivo, po) [mg/kg]
COCC(C)O (stereo not shown) [1-methoxy-2-propanol]	11700	
CCOCCO [2-ethoxyethanol]	2451	
COCCO [2-methoxyethanol]	2560	
CCO [ethanol]		3450
